Here are results for four compounds from patent US6066649A, “Drug for cardiovascular diseases” (Podzuweit; Thomas, priority 1992, dated 2000).

One series deals with PDE I. Kind of series: Test for PDE activity, inhibition of soluble PDE I from human myocardium. The class given is biochemical. The conditions noted are these: 1 μM cAMP or cGMP substrate, 25° C., pH 7.5. From the text: (§1) Samples of the left ventricular papillary muscles were obtained with the consent of patient who underwent an exchange of a mitral flap in the Universitats-Krankenhaus Gieβen, FRG. The myocardium samples of pigs (male pigs of the German breed of swine, 25 to 30 kg body weight) were obtained following excision of the hearts under Nembutal anesthesia. The samples were immediately frozen in liquid nitrogen and were then pulverized in a high speed mill and pre-cooled in liquid nitrogen. The frozen tissue powder was sieved through a screen made of stainless steel (-196° C.) (mesh size: 0.315 mm) in an homogenizing buffer (4° C.) (1 ml per 100 mg of powder), comprising (final concentrations): 20 mM of bis-tris, 2 mM of EDTA, 5 mM of 2-mercaptoethanol, 2 mM of benzamidine, 50 μM of phenylmethylsulfonylfluoride, 50 mM of sodium acetate, pH 6.5. All of the following steps were conducted at 4° C. The homogenate was centrifuged at 48,000 g for 30 minutes. […]
(§2) The PDE activity was measured with an off line liquid scintillation spectrometry using HPLC. […] The enzyme activity was measured at 25° C. with 10 minute incubations. […]
(§3) The radioactive substrates and the products of the PDE reaction were determined quantitatively using a RACKBETA 1219 liquid scintillation counter (LKB Wallac, Freiburg, FRG). […]

The subject of another series is arrhythmias. Briefly: Antiarrhythmic action. The conditions noted are these: in words; no test data given.
Series [1] relates to cGMP content of the rat aorta. The conditions noted are these: as a function of the dose; cited from earlier work.
The next series concerns mouse, rat and rabbit. The note with it: cited from earlier work.
Series [2] deals with adenosine deaminase. The conditions noted are these: cited from earlier work; for inhibition of adenosine deaminase: in words.
The conditions of series [3]: cited from earlier work.
Series [4] concerns the target T1, cGMP-stimulated PDE II (Sus scrofa, UniProt F1SUV3).
T1 construct: soluble cGMP-stimulated PDE II from swine myocardium; from tissue; host or cells: myocardium of male German breed swine, soluble extract, DEAE-Sepharose CL-6B peak fraction
T1 sequence (F1SUV3 1-945): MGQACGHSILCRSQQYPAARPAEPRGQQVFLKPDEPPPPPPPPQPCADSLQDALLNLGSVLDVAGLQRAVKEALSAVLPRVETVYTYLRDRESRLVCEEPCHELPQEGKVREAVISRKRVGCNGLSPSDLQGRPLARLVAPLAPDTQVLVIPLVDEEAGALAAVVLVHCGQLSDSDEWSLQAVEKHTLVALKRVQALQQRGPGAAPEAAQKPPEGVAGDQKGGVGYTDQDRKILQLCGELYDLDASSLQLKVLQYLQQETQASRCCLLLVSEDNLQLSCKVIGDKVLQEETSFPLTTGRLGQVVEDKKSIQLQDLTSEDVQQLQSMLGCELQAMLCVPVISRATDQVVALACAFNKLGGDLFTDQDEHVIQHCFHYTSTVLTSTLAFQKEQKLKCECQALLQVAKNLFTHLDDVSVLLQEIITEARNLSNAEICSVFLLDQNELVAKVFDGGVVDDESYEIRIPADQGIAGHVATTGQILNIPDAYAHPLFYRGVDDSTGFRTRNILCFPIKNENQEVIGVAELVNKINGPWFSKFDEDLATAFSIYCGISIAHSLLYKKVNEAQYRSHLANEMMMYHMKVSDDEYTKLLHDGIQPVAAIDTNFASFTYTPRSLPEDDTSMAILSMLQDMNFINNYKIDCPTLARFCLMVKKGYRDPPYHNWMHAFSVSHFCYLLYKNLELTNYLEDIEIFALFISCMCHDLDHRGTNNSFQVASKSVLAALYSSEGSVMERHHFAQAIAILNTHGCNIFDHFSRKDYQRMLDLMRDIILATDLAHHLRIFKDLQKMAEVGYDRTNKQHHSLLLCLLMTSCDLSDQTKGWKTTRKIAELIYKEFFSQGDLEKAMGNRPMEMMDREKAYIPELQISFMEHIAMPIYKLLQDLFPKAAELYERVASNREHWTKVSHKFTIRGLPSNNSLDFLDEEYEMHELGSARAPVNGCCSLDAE
Briefly: Test for PDE activity, inhibition of soluble cGMP-stimulated PDE II from swine myocardium. The note with it: 1 μM cAMP or cGMP substrate, 25° C., pH 7.5. Type of series: biochemical.
Excerpt: as §1, §2, §3

For series [5], the system named is other cyclic nucleotide phosphodiesterases. Briefly: Test for PDE activity, inhibition of the other cyclic nucleotide phosphodiesterases from swine myocardium. The class given is biochemical. The conditions noted are these: 1 μM cAMP or cGMP substrate, 25° C., pH 7.5.
Excerpt: as §1, §2, §3

The test system of series [6] is adenosine deaminase. The note with it: ADA and cGMP-stimulated PDE.
For the next series, the system named is ADA. The conditions noted are these: in words; cited from earlier work.
For the next series, the target named is human ADA. The conditions noted are these: read-out: K1 value for human ADA; racemic (±)-EHNA; cited from earlier work.
Series [7] addresses T2, cGMP-stimulated PDE II (Homo sapiens, UniProt O00408).
T2 construct: cytosolic cGMP-stimulated PDE II isoenzyme from human myocardium; from tissue; host or cells: human left ventricular papillary muscle, soluble extract, DEAE-Sepharose CL-6B peak fraction
Kind of series: Test for PDE activity, inhibition of cytosolic cGMP-stimulated PDE II from human myocardium. Type of series: biochemical. From the text:
(§4) Samples of the left ventricular papillary muscles were obtained with the consent of patient who underwent an exchange of a mitral flap in the Universitats-Krankenhaus Gieβen, FRG. The myocardium samples of pigs (male pigs of the German breed of swine, 25 to 30 kg body weight) were obtained following excision of the hearts under Nembutal anesthesia. The samples were immediately frozen in liquid nitrogen and were then pulverized in a high speed mill and pre-cooled in liquid nitrogen. […] All of the following steps were conducted at 4° C. The homogenate was centrifuged at 48,000 g for 30 minutes. […] The column was washed with 200 ml of buffer; and the PDE activities were eluted with a linear gradient ranging from 0.05 to 1 M of sodium acetate in buffer (flow time of the gradient: 500 minutes). The flow rate was 1 ml/min. 5 ml fractions were obtained and tested for PDE activity.
(§5) The PDE activity was measured with an off line liquid scintillation spectrometry using HPLC. […] The enzyme activity was measured at 25° C. with 10 minute incubations. The reaction was started with the addition of 50 μl of enzyme solution and terminated through injection of 20 μl of 60% perchloric acid. Aliquots of 20 μl of acidic supernatant were siphoned off and injected into an automated HPLC system (column LiChrospher RP-18e) (250×4 mm; 5 μm packing).
(§6) The data were fitted with four parameters with the aid of the sigmoidal logistic function.
(§7) The soluble PDE isoenzymes from swine and human myocardium were severed by means of anion exchange chromatography using DEAE-sepharose CL-6B. The enzyme activities were called PDE I to IV according to the nomenclature of J. A. Beavo and D. H. Reifsnyder. The PDE II activity was stimulated by means of cGMP (1 μM).

The subject of series [8] is cGMP-stimulated PDE II. The description is as above. Type of series: biochemical. The note with it: cGMP 1 μM; in words; swine and human myocardium.
Excerpt: as §4, §5, §6, §7

Structures are written as SMILES. Like-named read-outs stand apart in the source and are kept apart here.

T2 sequence (O00408 1-920 isoform O00408-2): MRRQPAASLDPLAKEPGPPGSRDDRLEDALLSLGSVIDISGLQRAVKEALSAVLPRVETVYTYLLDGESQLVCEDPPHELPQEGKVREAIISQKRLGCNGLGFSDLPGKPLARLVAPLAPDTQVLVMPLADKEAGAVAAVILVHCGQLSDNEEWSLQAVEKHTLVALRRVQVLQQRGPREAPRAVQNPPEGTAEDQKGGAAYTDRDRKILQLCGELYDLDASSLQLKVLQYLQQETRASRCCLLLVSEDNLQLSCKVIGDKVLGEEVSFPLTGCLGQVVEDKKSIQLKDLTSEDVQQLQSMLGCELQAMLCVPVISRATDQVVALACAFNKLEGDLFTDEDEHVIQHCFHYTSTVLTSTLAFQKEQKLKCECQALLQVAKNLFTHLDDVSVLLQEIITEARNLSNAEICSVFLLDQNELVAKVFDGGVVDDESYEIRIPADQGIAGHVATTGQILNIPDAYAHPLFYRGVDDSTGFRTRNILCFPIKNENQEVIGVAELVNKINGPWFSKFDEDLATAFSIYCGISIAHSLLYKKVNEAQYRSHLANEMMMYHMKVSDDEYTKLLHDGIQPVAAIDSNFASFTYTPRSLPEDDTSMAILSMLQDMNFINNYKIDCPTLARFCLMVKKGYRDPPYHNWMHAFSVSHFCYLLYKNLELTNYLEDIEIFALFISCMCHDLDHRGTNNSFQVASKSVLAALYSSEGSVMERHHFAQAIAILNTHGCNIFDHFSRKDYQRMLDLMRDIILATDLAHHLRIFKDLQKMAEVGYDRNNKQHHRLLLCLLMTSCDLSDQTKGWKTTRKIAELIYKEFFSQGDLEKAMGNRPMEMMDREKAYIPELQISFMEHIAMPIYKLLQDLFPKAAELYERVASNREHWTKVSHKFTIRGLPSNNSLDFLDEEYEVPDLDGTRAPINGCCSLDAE

In general, IC50 refers to the point on the concentration scale where inhibition reaches its midpoint. For the compound `CCCOc1ccccc1-c1nc2nn[nH]c2c(=O)[nH]1` [2-o-propoxyphenyl-8-azapurine-6-one, 1,4-dihydro-5-(2-propoxyphenyl-7H-1,2,3-triazolo[4,5-d]pyrimidine-7-one)], half-maximal inhibition in the series on PDE I (IC50) was put at 8000 nM. For the same compound, the antiarrhythmic action result in the series on arrhythmias was “strong antiarrhythmic agents”. The “effect on cGMP content of the rat aorta” value in series [1] is recorded as “raises the cGMP content”. Also, the “acute oral LD50” value with mouse, rat and rabbit (in vivo, po) is recorded as 1,400-2,000 mg/kg. The toxicity result in the series on mouse, rat and rabbit (in words) is reported as “low toxicity”. For the same compound, in the series with adenosine deaminase [2], the “inhibition of adenosine deaminase” value is “does not inhibit the adenosine deaminase”. Also, the “solubility in acetone and ethanol and weakly basic solutions” value in series [3] (acetone and ethanol and weakly basic solutions) was “dissolves in acetone and ethanol and weakly basic solutions”. In series [3] (water), the solubility in water entry is on record as “slightly soluble in water”.

In general, Km refers to the concentration of substrate that gives half-maximal velocity. Take `Nc1ncnc2c1ncn2[C@@H]1O[C@H](CO)[C@@H](O)[C@H]1O` [adenosine]: the Km with adenosine deaminase [2] (substrate of adenosine deaminase) is 20 µM.

As for `CCCCCC[C@H]([C@H](C)O)n1cnc2c(N)ncnc21` (relative stereo) [EHNA, erythro-9-(2-hydroxy-3-nonyl)-adenine], the IC50 against cGMP-stimulated PDE II [4] is 2000 nM; in series [5] it was above 100000 nM; against cGMP-stimulated PDE II [7] (human myocardium, 1 μM cAMP or cGMP substrate, 25° C., pH 7.5), 800 nM. The “doses having inhibiting effects on both enzymes (adenosine deaminase and cGMP-stimulated PDE)” value with adenosine deaminase [6] is “more than 10^-7 M”. Also, in the series on ADA, the “concentrations of EHNA required to inhibit ADA in intact cells” value is on record as “much higher concentrations”. The Ki at human ADA is 4 nM; on adenosine deaminase [2] (classical competitive inhibition, first bonding step, read-out: inhibition constant K1 of the initial bonding step), 200 nM; on adenosine deaminase [2] (fixed enzyme-inhibitor complex after rearrangement, read-out: total inhibition constant) it was 1.7 nM. In addition, in the series with adenosine deaminase [2], the “inhibition of adenosine deaminase” value was “inhibiting effects both on adenosine deaminase and cGMP-stimulated PDE”. Besides, the “inhibition of the cGMP-stimulated enzyme at the concentration at which inhibition of the PDE isotypes I, III and IV began” value on cGMP-stimulated PDE II [7] (human myocardium) is recorded as “more than 99%”. The “activity as inhibitor of PDE II compared with papaverine, on a molar basis” value at cGMP-stimulated PDE II [7] (in words) was “more active”.

Turning to `Nc1nc2c(ncn2[C@@H]2O[C@@H]3COP(=O)(O)O[C@H]3[C@H]2O)c(=O)[nH]1` [cGMP], in the series on cGMP-stimulated PDE II [8], the “effect of cGMP on PDE II activity” value was “stimulated”.
